# Legend:
# Assay type in all cases: cell-based, Human
# HCC827 = assay: Cell viability by APR-246 treatment concentration (IncuCyte, crystal violet); conditions: HCC827 p53-mutant lung cancer cells, 4 to 5 days, FIG. 7B
# Description: (§1) Human lung cancer cell lines NCI-H1793, NCI-H2009, and HCC827 were purchased from the Korea Cell Line Bank (KCLB), and NCI-H1792 was purchased from the American Type Culture Collection (ATCC). NCI-H1793 and HCC827 were cultured in a RPMI 1640 medium supplemented with 10% fetal bovine serum (FBS) and antibiotics (100 U/ml penicillin, 100 μg/ml of streptomycin, and 0.25 μg/ml of Fungizone). NCI-H1792 and NCI-H2009 were cultured with the same supplements in a DMEM medium. All the cell lines were cultured at 37° C. in an incubator containing 5% carbon dioxide.
# (§2) Dimethyl sulfoxide (DMSO) was purchased from Sigma-Aldrich and was used as a drug control. APR-246 and TGFβ1 protein were purchased from MedChemExpress (MCE). APR-246 was used by diluting 25 mg to a final concentration of 10 mM, and the cells were treated for 4 to 5 days when checking the cell viability and for 24 hours when performing a Western blot experiment. In addition, TGFβ1 at a concentration of 10 μg/ml was a TGF-beta pathway activator, and drug-sensitive cell lines were seeded and treated with 5 ng/ml of TGFβ1 24 hours later, and the cells were harvested 24 hours later.
# (§3) Cells were seeded in a 96-well plate at 3 to 5×10^3 cells per well. A drug was then treated within 24 hours after seeding. After drug treatment, cell growth was recorded every 3 hours using IncuCyte ZOOM for 4 to 5 days. Cell viability was analyzed using IncuCyte ZOOM 2016A software. After 4 to 5 days, the cells were stained with 1% crystal violet for 30 minutes at room temperature and washed with distilled water to confirm the amount of viable cells.
# (§4) The present inventors confirmed the cell viability according to the APR-246 drug treatment concentration for lung cancer cell lines NCI-H1793, NCI-H1792, HCC827, and NCI-H2009, which were known to have p53 mutations. At this time, APR-246 drug-sensitive cell lines and resistant cell lines were distinguished based on z-score normalized IC50 values.
# NCI-H1792 = assay: as above; conditions: NCI-H1792 p53-mutant lung cancer cells, 4 to 5 days, FIG. 7A
# Description: as §1, §2, §3, §4
# NCI-H1793 = assay: as above; conditions: NCI-H1793 p53-mutant lung cancer cells, 4 to 5 days, FIG. 7A
# Description: as §1, §2, §3, §4
# NCI-H2009 = assay: as above; conditions: NCI-H2009 p53-mutant lung cancer cells, 4 to 5 days, FIG. 7B
# Description: as §1, §2, §3, §4
# THBS1 mRNA = assay: THBS1 knockdown by shRNA, mRNA level by qRT-PCR; conditions: lentiviral shRNA, FIG. 8A
# Description: HEK 293T cells were used to transfect shRNA targeting THBS1 and an overexpression vector. In addition to shRNA (shTHBS1; […]; SEQ ID NO: 1) and an overexpression vector (pDNA (VB220725-1808zjh); […]. Infected cells were selected using 1 μg/ml of puromycin for at least one week.
# (§5) Total RNA was extracted from cells using a total RNA extraction kit from Intron Biotechnology. Genomic DNA was removed by treatment with RNase-free DNase I. Complementary DNA (cDNA) was synthesized using a DiaStar RT kit of Solgent. In addition, RT-PCR was performed using Veriti 96-well Thermal Cycler of Applied Biosystems, and real-time polymerase chain reaction (qRT-PCR) was performed using a QuantStudio 5 real-time PCR system, an SYBR master mix (Genet Bio), and primers.
# At this time, when NCI-H1792 and NCI-H1793 cell lines, lung cancer cell lines with drug resistance to APR-246, were treated with THBS1-targeting shRNA (SEQ ID NO: 1; […]) as a THBS1 inhibitor, the THBS1 mRNA expression level was reduced (FIG. 8A). In addition, when THBS1 was overexpressed in NCI-H2009 and HCC827, lung cancer cell lines with high drug responsiveness to APR-246, it was confirmed that the THBS1 mRNA expression level was increased (FIG. 8B).
# THBS1 = THBS1 expression after TGF-beta pathway activation in sensitive cell lines; conditions: two sensitive cell lines, 5 ng/ml TGFβ1 24 hours after seeding, harvested 24 hours later, FIGS. 10D and 10E
# Description: as §2, §5
# TGFβ1 mRNA = TGFβ1 mRNA expression after TGF-beta pathway activation in sensitive cell lines; conditions: two sensitive cell lines, 5 ng/ml TGFβ1 24 hours after seeding, harvested 24 hours later, FIGS. 10D and 10E
# Description: as §2, §5
compound,measurement,setting,value
COCC1(CO)C(=O)C2CCN1CC2 (centres unmarked) [APR-246],drug response (cell viability),HCC827,clear response
same,drug response (cell viability),NCI-H1792,hardly responded
same,drug response (cell viability),NCI-H1793,hardly responded
same,drug response (cell viability),NCI-H2009,clear response
"THBS1-targeting shRNA: short hairpin RNA targeting THBS1, GTAGGTTATGATGAGTTTAAT (SEQ ID NO: 1), delivered by lentivirus (guide GUAGGUUAUGAUGAGUUUAAU)",THBS1 mRNA expression level,THBS1 mRNA; NCI-H1792 cells,reduced
same,THBS1 mRNA expression level,THBS1 mRNA; NCI-H1793 cells,reduced
"drug that activated the TGF-beta signaling pathway: TGFβ1 protein from MedChemExpress, used as TGF-beta pathway activator at 5 ng/ml",expression level of THBS1,THBS1,increased
same,mRNA expression level of TGFβ1,TGFβ1 mRNA,increased

# Reference: patent publication US20250302863A1, “USE OF THBS1 INHIBITOR FOR OVERCOMING DRUG RESISTANCE IN CANCER” (KOREA ADVANCED INSTITUTE OF SCIENCE AND TECHNOLOGY, priority 2022, published 2025)
